Data taken from patent US12161676B2, “Methods of use of islet cells” (CEDARS-SINAI MEDICAL CENTER, priority 2018, dated 2024).

Tested on: endocrine progenitors
Assay: Differentiation of iPSC-derived endocrine progenitors towards immature beta cells, marker expression with tested reagent combinations
Type: cell-based, human
Conditions: addition of the reagent during differentiation of endocrine progenitors into beta cells
Method: FIG. 31. Expression of DAPI, C-Peptide, Glucagon and NKX6.1 when testing various compounds at day 23.
FIG. 32. Measurement of DAPI, C-Peptide, Glucagon and NKX6.1 expression across tested compound combinations.
To further differentiate endocrine progenitors into beta cells, various reagents were tested to determine which combinations are most efficient in generating immature beta cells. T3 was selected for its role in beta cell survival, function, and identity Alk5 inhibitor II was selected for its specificity in inhibition of TGF beta receptor 1. XXI was selected as Notch inhibitor to exit cell cycle and as a driving force between endocrine vs duct phenotypes. Noggin is selected for BMP inhibition due to evidence that inhibition of this pathway is important for endocrine differentiation. Addition of notch inhibitor XXI reduced NKX6.1 levels and increased glucagon levels. […] The aforementioned growth factors can be used in combination for immature beta cell production. Thereafter, there is a need for a maturation step to induce glucose sensitivity on immature induced-islet cells

Row | Molecule | NKX6.1 levels | glucagon levels | c-peptide levels
1 | C[C@H](NC(=O)Cc1cc(F)cc(F)c1)C(=O)N[C@H]1N=C(c2ccccc2)c2ccccc2N(C)C1=O [XXI] | reduced | increased | –
2 | noggin | – | – | slightly increases
